Data reported in PubChem BioAssay AID1259407 (Chemical Carcinogenesis Research Information System (CCRIS), 2018).
Activity calls are given as the source filed them. No rule for the calls is given here.

System: CCRIS mutagenicity, Ames/micronucleus/aberration tests
Experiment: CCRIS mutagenicity studies
Settings: Test System: AMES SALMONELLA TYPHIMURIUM
[1] = Strain/Indicator: TA97, Metabolic Activation: NONE, Method: PREINCUBATION
[2] = Strain/Indicator: TA98, Metabolic Activation: NONE, Method: PREINCUBATION
[3] = Strain/Indicator: TA100, Metabolic Activation: NONE, Method: PREINCUBATION
[4] = Strain/Indicator: TA1535, Metabolic Activation: NONE, Method: PREINCUBATION
[5] = Strain/Indicator: TA98, Metabolic Activation: NONE, Method: STANDARD PLATE
[6] = Strain/Indicator: TA100, Metabolic Activation: NONE, Method: STANDARD PLATE

Measured: mutagenic call

O=C1C=CC(=O)c2c(O)c(Cl)c(Cl)c(O)c21
inactive: [1] inactive; negative | [2] inactive; negative | Strain/Indicator: TA98, Metabolic Activation: RAT, LIVER, S-9, PHENOBARBITAL AND 5,6-BENZOFLAVONE, Method: PREINCUBATION inactive; negative | [3] inactive; negative | Strain/Indicator: TA100, Metabolic Activation: RAT, LIVER, S-9, PHENOBARBITAL AND 5,6-BENZOFLAVONE, Method: PREINCUBATION inactive; negative | Strain/Indicator: TA102, Metabolic Activation: NONE, Method: PREINCUBATION inactive; negative | [4] inactive; negative | Strain/Indicator: TA1535, Metabolic Activation: RAT, LIVER, S-9, PHENOBARBITAL AND 5,6-BENZOFLAVONE, Method: PREINCUBATION inactive; negative | Strain/Indicator: TA1537, Metabolic Activation: NONE, Method: PREINCUBATION inactive; negative | Strain/Indicator: TA1538, Metabolic Activation: NONE, Method: PREINCUBATION inactive; negative | Strain/Indicator: TA1538, Metabolic Activation: RAT, LIVER, S-9, PHENOBARBITAL AND 5,6-BENZOFLAVONE, Method: PREINCUBATION inactive; negative | Strain/Indicator: TA2637, Metabolic Activation: NONE, Method: PREINCUBATION inactive; negative
active: Strain/Indicator: TA97, Metabolic Activation: RAT, LIVER, S-9, PHENOBARBITAL AND 5,6-BENZOFLAVONE, Method: PREINCUBATION active; positive | Strain/Indicator: TA102, Metabolic Activation: RAT, LIVER, S-9, PHENOBARBITAL AND 5,6-BENZOFLAVONE, Method: PREINCUBATION active; positive | Strain/Indicator: TA104, Metabolic Activation: NONE, Method: PREINCUBATION active; positive | Strain/Indicator: TA104, Metabolic Activation: RAT, LIVER, S-9, PHENOBARBITAL AND 5,6-BENZOFLAVONE, Method: PREINCUBATION active; positive | Strain/Indicator: TA1537, Metabolic Activation: RAT, LIVER, S-9, PHENOBARBITAL AND 5,6-BENZOFLAVONE, Method: PREINCUBATION active; positive | Strain/Indicator: TA2637, Metabolic Activation: RAT, LIVER, S-9, PHENOBARBITAL AND 5,6-BENZOFLAVONE, Method: PREINCUBATION active; positive

CC1(c2ccc(Br)cc2)CO1 (stereo unspecified)
inactive: [3] inactive; negative

Cc1ccc(C)o1
inactive: Strain/Indicator: TA97, Metabolic Activation: HAMSTER, LIVER, S-9, AROCLOR 1254 (10%), Method: PREINCUBATION inactive; negative | Strain/Indicator: TA97, Metabolic Activation: HAMSTER, LIVER, S-9, AROCLOR 1254 (30%), Method: PREINCUBATION inactive; negative | [1] inactive; negative | Strain/Indicator: TA97, Metabolic Activation: RAT, LIVER, S-9, AROCLOR 1254 (10%), Method: PREINCUBATION inactive; negative | Strain/Indicator: TA97, Metabolic Activation: RAT, LIVER, S-9, AROCLOR 1254 (30%), Method: PREINCUBATION inactive; negative | Strain/Indicator: TA98, Metabolic Activation: HAMSTER, LIVER, S-9, AROCLOR 1254 (10%), Method: PREINCUBATION inactive; negative | Strain/Indicator: TA98, Metabolic Activation: HAMSTER, LIVER, S-9, AROCLOR 1254 (30%), Method: PREINCUBATION inactive; negative | [2] inactive; negative | [5] inactive; negative | Strain/Indicator: TA98, Metabolic Activation: RAT, LIVER, S-9, AROCLOR 1254 (10%), Method: PREINCUBATION inactive; negative | Strain/Indicator: TA98, Metabolic Activation: RAT, LIVER, S-9, AROCLOR 1254 (30%), Method: PREINCUBATION inactive; negative | Strain/Indicator: TA98, Metabolic Activation: S-9, Method: STANDARD PLATE inactive; negative | Strain/Indicator: TA100, Metabolic Activation: HAMSTER, LIVER, S-9, AROCLOR 1254 (10%), Method: PREINCUBATION inactive; negative | Strain/Indicator: TA100, Metabolic Activation: HAMSTER, LIVER, S-9, AROCLOR 1254 (30%), Method: PREINCUBATION inactive; negative | [3] inactive; negative | [6] inactive; negative | Strain/Indicator: TA100, Metabolic Activation: RAT, LIVER, S-9, AROCLOR 1254 (10%), Method: PREINCUBATION inactive; negative | Strain/Indicator: TA100, Metabolic Activation: RAT, LIVER, S-9, AROCLOR 1254 (30%), Method: PREINCUBATION inactive; negative | Strain/Indicator: TA100, Metabolic Activation: S-9, Method: STANDARD PLATE inactive; negative | Strain/Indicator: TA1535, Metabolic Activation: HAMSTER, LIVER, S-9, AROCLOR 1254 (10%), Method: PREINCUBATION inactive; negative | Strain/Indicator: TA1535, Metabolic Activation: HAMSTER, LIVER, S-9, AROCLOR 1254 (30%), Method: PREINCUBATION inactive; negative | [4] inactive; negative | Strain/Indicator: TA1535, Metabolic Activation: RAT, LIVER, S-9, AROCLOR 1254 (10%), Method: PREINCUBATION inactive; negative | Strain/Indicator: TA1535, Metabolic Activation: RAT, LIVER, S-9, AROCLOR 1254 (30%), Method: PREINCUBATION inactive; negative

O=C(OCc1ccccc1)c1cccc2cccnc12
inactive: [5] inactive; negative | Strain/Indicator: TA98, Metabolic Activation: RAT, LIVER, S-9, AROCLOR 1254, Method: STANDARD PLATE inactive; negative | [6] inactive; negative | Strain/Indicator: TA100, Metabolic Activation: RAT, LIVER, S-9, AROCLOR 1254, Method: STANDARD PLATE inactive; negative | Strain/Indicator: TA1535, Metabolic Activation: NONE, Method: STANDARD PLATE inactive; negative | Strain/Indicator: TA1535, Metabolic Activation: RAT, LIVER, S-9, AROCLOR 1254, Method: STANDARD PLATE inactive; negative | Strain/Indicator: TA1537, Metabolic Activation: NONE, Method: STANDARD PLATE inactive; negative | Strain/Indicator: TA1537, Metabolic Activation: RAT, LIVER, S-9, AROCLOR 1254, Method: STANDARD PLATE inactive; negative
